Results on 1 compound are retold here after patent US20230106032A1, “IMIDAZOTRIAZINES ACTING ON CANCER VIA INHIBITION OF CDK12” (Bayer Aktiengesellschaft, priority 2020, published 2023).

Assay [1] deals with T1, CDK12/CycK (Homo sapiens, UniProt Q9NYV4).
T1 construct: His-CDK12 (aa Q696-S1082); made in house; host or cells: Hi-5 insect cells (baculovirus co-infection with CAK1)
In words: CDK12/CycK high ATP kinase assay (TR-FRET, 2 mM ATP). As to conditions: read-out: CDK12/CyclinK, 2 mM ATP (high ATP), IC50-[mol/l] (median). The class given is biochemical. The text has this:
In the context of the present invention, the term “IC50 CDK12 hATP” refers to the IC50 values obtained according to the assay described in this section (2.2) herein below, i.e. the IC50 values for the inhibition of CDK12 at high ATP.
CDK12/CycK-inhibitory activity of compounds of the present invention at 2 millimol/L adenosine-tri-phosphate (ATP) was quantified employing the TR-FRET (TR-FRET=Time Resolved Fluorescence Energy Transfer) based CDK12/CycK activity inhibition assay as described in the following paragraphs.
A complex of human recombinant CDK12 and human recombinant CycK (both N-terminally His-tagged, expression and purification as described above) was used as enzyme. As substrate for the kinase reaction biotinylated peptide biotin-Ahx-KFELLPTPPLSPSRRSGL (C-terminus in amid form) was used which can be purchased e.g. form the company Biosyntan (Berlin-Buch, Germany).
For the assay 50 nanoL of a 100 fold concentrated solution of the test compound in DMSO was pipetted into either a black low volume 384 well microtiter plate or a black 1536 well microtiter plate (both Greiner Bio-One, Frickenhausen, Germany), 2 microL of a solution of CDK12/CycK in aqueous assay buffer [25 millimol/L HEPES pH 7.5, 20 millimol/L MgCl2, 5 millimol/L ß-glycerophosphate, 2 millimol/L EGTA, 1.0 millimol/L dithiothreitol, 0.01% (v/v) Nonidet-P40 (Sigma), 0.01% (w/v) bovine serum albumin] were added and the mixture was incubated for 15 min at 22° C. to allow pre-binding of the test compounds to the enzyme before the start of the kinase reaction. Then the kinase reaction was started by the addition of 3 microL of a solution ATP (3.33 millimol/L=> final conc. in the 5 microL assay volume is 2 millimol/L) and substrate (1.67 micromol/L=> final conc. in the 5 microL assay volume is 1 micromol/L) in assay buffer and the resulting mixture was incubated for a reaction time of 60 min at 22° C. The concentration of CDK12/CycK was adjusted depending of the activity of the enzyme lot and was chosen appropriate to have the assay in the linear range, typical concentrations were about 0.75 nanomol/L. The reaction was stopped by the addition of 3 microL of a solution of TR-FRET detection reagents (125 nanomol/L streptavidine-XL665 [Cisbio Bioassays, Codolet, France] and 0.67 nanomol/L anti-Phospho-c-Myc (Ser 62) (E1J4K)-antibody from Cell Signalling [#13748] and 2 nanomol/L LANCE EU-W1024 labeled anti-rabbit IgG antibody [Perkin-Elmer, product no. 0083]) in an aqueous EDTA-solution (133 millimol/L EDTA, 0.27% (w/v) bovine serum albumin in 66.7 millimol/L HEPES pH 7.5).
(§1) The resulting mixture was incubated 1 h at 22° C. to allow the formation of complex between the phosphorylated biotinylated peptide and the detection reagents. Subsequently the amount of phosphorylated substrate was evaluated by measurement of the resonance energy transfer from the Eu-chelate to the streptavidine-XL. Therefore, the fluorescence emissions at 620 nm and 665 nm after excitation at 350 nm was measured in a TR-FRET reader, e.g. a Pherastar FS (BMG Labtechnologies, Offenburg, Germany) or a Viewlux (Perkin-Elmer). The ratio of the emissions at 665 nm and at […] was taken as the measure for the amount of phosphorylated substrate. The data were normalised (enzyme reaction without inhibitor=0% inhibition, all other assay components but no enzyme=100% inhibition).
For orientation: Time-resolved FRET reads energy transfer from a long-lived donor to a nearby acceptor.

The target of assay [2] is T2, CDK2/CycE (Homo sapiens, UniProt P24941).
T2 construct: purchased ProQinase GmbH (Freiburg, Germany); host or cells: insect cells (Sf9)
In words: CDK2/CycE kinase assay (TR-FRET, 2 mM ATP). The class given is biochemical. As to conditions: read-out: CDK2/CyclinE, 2 mM ATP (high ATP) IC50-[mol/l] (median).
Description: CDK2/CycE-inhibitory activity of compounds of the present invention was quantified employing the CDK2/CycE TR-FRET assay as described in the following paragraphs.
Recombinant fusion proteins of GST and human CDK2 and of GST and human CycE, expressed in insect cells (Sf9) and purified by Glutathion-Sepharose affinity chromatography, were purchase from ProQinase GmbH (Freiburg, Germany). As substrate for the kinase reaction biotinylated peptide biotin-Ttds-YISPLKSPYKISEG (C-terminus in amid form) was used which can be purchased e.g. form the company JERINI peptide technologies (Berlin, Germany).
For the assay 50 nanoL of a 100 fold concentrated solution of the test compound in DMSO was pipetted into a black low volume 384 well microtiter plate or a black 1536 well microtiter plate (both Greiner Bio-One, Frickenhausen, Germany), 2 microL of a solution of CDK2/CycE in aqueous assay buffer [50 millimol/L Tris/HCl pH 8.0, 10 millimol/L MgCl2, 1.0 millimol/L dithiothreitol, 0.1 millimol/L sodium ortho-vanadate, 0.01% (v/v) Nonidet-P40 (Sigma)] were added and the mixture was incubated for 15 min at 22° C. to allow pre-binding of the test compounds to the enzyme before the start of the kinase reaction. Then the kinase reaction was started by the addition of 3 microL of a solution of adenosine-tri-phosphate (ATP, 3.33 millimol/L=> final conc. in the 5 microL assay volume is 2 millimol/L) and substrate (1.25 micromol/L=> final conc. in the 5 microL assay volume is 0.75 micromol/L) in assay buffer and the resulting mixture was incubated for a reaction time of 25 min at 22° C. The concentration of CDK2/CycE was adjusted depending of the activity of the enzyme lot and was chosen appropriate to have the assay in the linear range, typical concentrations were in the range of 10 ng/ml. The reaction was stopped by the addition of 3 microL of a solution of TR-FRET detection reagents (0.333 micromol/L streptavidine-XL665 [Cisbio Bioassays, Codolet, France] and 1.67 nanomol/L anti-RB(pSer807/pSer8l 1)-antibody from BD Pharmingen [#558389] and 2 nanomol/L LANCE EU-W1024 labeled anti-mouse IgG antibody [Perkin-Elmer, product no. AD0077, as an alternative a Terbium-cryptate-labeled anti-mouse IgG antibody from Cisbio Bioassays can be used]) in an aqueous EDTA-solution (167 millimol/L EDTA, 0.2% (w/v) bovine serum albumin in 100 millimol/L HEPES pH 7.5).
as §1, with “Pherastar” for “Pherastar FS”

T1 sequence (Q9NYV4 with tags, fused parts or gaps): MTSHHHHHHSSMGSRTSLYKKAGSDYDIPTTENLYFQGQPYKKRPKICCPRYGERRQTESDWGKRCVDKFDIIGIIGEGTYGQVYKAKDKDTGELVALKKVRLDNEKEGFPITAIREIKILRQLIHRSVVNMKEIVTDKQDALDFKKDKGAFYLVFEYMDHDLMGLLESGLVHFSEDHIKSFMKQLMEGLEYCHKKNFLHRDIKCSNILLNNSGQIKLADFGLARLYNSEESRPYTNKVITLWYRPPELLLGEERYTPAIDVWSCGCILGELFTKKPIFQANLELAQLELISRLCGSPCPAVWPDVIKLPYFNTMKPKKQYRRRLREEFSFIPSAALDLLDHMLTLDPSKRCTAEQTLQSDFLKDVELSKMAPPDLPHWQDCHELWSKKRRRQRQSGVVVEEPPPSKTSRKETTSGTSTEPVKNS
T1 sequence (O75909 with tags, fused parts or gaps partner limits assumed): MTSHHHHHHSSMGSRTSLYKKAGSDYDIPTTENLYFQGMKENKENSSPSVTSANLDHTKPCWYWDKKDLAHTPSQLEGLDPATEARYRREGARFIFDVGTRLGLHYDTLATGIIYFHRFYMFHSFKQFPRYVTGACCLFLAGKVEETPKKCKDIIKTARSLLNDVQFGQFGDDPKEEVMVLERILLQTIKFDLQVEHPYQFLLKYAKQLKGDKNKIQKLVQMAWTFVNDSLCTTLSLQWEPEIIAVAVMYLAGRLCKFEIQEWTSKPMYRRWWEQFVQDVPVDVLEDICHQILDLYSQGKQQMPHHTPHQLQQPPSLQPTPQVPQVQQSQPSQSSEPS

Regarding `CN1CCN(c2nc(NCc3nc4ccccc4[nH]3)c3ncc(Br)n3n2)CC1` [Example 6, N-[(1H-benzimidazol-2-yl)methyl]-7-bromo-2-(4-methylpiperazin-1-yl)imidazo[2,1-f][1,2,4]triazin-4-amine], the IC50 was above 18.6 µM in assay [1] and above 20 µM in assay [2].
